Source: ChEMBL document CHEMBL1201862, “PubChem BioAssay data set” (2004)
Calls of active or inactive are those of the source.

Tests used:
[1] = molecular target: T1, Short transient receptor potential channel 4 (Mus musculus, UniProt Q9QUQ5); experiment: mouse TRPC4 channel activators, dose response, cell-based, HEK293 TRPC4/mu-opioid, Fluo-4 calcium (AID 434937); assay type: functional
T1 sequence (Q9QUQ5 whole entry): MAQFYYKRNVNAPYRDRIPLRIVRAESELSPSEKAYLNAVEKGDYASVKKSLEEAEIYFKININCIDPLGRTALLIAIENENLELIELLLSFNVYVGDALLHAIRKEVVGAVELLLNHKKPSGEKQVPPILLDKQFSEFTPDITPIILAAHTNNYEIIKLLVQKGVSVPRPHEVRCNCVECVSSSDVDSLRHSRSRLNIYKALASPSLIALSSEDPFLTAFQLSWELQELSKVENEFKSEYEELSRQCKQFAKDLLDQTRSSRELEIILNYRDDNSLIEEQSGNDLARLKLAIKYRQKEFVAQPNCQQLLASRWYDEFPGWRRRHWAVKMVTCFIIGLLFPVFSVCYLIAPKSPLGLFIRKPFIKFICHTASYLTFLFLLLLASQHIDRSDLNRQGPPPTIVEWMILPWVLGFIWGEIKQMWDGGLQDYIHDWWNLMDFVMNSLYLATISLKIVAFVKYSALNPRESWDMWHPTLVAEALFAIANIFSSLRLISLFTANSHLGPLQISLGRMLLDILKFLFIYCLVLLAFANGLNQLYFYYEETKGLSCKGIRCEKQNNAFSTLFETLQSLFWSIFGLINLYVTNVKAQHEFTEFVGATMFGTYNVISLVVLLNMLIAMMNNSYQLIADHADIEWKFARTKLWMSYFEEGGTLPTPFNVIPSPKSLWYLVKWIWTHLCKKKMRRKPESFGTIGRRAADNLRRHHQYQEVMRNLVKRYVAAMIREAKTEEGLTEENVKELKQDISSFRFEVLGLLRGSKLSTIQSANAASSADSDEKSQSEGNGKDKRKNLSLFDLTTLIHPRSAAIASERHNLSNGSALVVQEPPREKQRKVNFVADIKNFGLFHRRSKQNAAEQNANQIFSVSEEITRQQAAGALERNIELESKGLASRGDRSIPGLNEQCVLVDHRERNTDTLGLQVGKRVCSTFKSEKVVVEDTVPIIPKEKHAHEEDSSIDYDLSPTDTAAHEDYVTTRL

[2] = molecular target: T2, High affinity choline transporter 1 (Homo sapiens, UniProt Q9GZV3); experiment: CHT inhibitors, dose response, cell-based, 5-point CRC, membrane potential dye (AID 504840); assay type: functional
T2 sequence (Q9GZV3 whole entry): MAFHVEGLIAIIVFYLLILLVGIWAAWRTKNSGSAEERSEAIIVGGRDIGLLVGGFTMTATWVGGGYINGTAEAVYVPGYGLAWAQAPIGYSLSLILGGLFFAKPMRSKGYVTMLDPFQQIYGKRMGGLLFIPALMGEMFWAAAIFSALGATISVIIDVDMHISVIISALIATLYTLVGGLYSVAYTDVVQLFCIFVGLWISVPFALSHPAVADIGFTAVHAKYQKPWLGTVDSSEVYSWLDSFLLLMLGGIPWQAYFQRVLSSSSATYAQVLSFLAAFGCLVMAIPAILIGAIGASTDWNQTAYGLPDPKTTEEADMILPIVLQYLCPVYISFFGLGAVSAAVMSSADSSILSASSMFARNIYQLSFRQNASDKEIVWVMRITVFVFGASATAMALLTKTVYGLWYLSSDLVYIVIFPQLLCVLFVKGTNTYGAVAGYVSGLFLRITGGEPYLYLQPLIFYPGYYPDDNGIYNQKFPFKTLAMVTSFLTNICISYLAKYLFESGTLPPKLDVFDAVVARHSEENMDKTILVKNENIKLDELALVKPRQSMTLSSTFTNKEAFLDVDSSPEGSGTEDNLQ

Cytochrome P450 2C9 = Cytochrome P450 2C9 (Homo sapiens, UniProt P11712)
[3] = molecular target: Glucose-6-phosphate 1-dehydrogenase (Homo sapiens, UniProt P11413); experiment: human G6PD enzyme inhibitors, dose response, selectivity assay for P. falciparum G6PD inhibitor project, biochemical, fluorescence (AID 504792); assay type: functional
[4] = inhibitors of clade B AD8 Env fusion, dose response, cell-based, cherry-pick (AID 652062); assay type: functional;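 note: luciferase signal from cell-cell fusion driven by HIV-1 clade B AD8 Env; potency is for inhibitors of fusion seen as a drop in luminescence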
[5] = inhibitors of HIV Env-driven cell fusion, dose response, cherry-pick (AID 652057); assay type: functional, cell-based
H9c2 = experiment: cells; assay type: functional, cell-based; details: Rattus norvegicus, H9c2, Myocardium;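 note: confirmatory concentration-response retest of ultra-high-throughput screening hits for modulation of myocardial damage; cell death induced by hydrogen peroxide oxidative stress; compound pretreatment for 60 min then peroxide exposure for 2 h; potency is for protecting the cells against peroxide damage rather than for killing them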
HEK293 [6] = experiment: cells; assay type: functional, cell-based; details: Homo sapiens
HEK293 [7] = experiment: NOD1 signaling inhibitors, primary screen, cell-based, luminescence, uHTS (AID 1578); assay type: functional; details: Homo sapiens
[8] = Shn3 3'UTR reporter inhibitors, dose response, cell-based, Clone20 osteoblasts, firefly luciferase, cherry-picked (AID 624132); assay type: functional;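 note: firefly luciferase luminescence from reporter carrying the Shn3 3'UTR in osteoblasts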
HEK293 [9] = experiment: cells; assay type: functional, cell-based; details: Homo sapiens; remark: listed apart in the source
[10] = HepG2 cell cytotoxicity, dose response, cytotoxicity control for Shn3 inhibitor project, CellTiter-Glo, cherry-picked (AID 624134); assay type: functional, cell-based
HEK293 [11] = experiment: NOD2 signaling inhibitors in MDP-stimulated cells, cell-based, uHTS, luminescence (AID 2001); assay type: functional; details: Homo sapiens

Chain of Glucose-6-phosphate 1-dehydrogenase (P11413 whole entry, the tested form may be a part): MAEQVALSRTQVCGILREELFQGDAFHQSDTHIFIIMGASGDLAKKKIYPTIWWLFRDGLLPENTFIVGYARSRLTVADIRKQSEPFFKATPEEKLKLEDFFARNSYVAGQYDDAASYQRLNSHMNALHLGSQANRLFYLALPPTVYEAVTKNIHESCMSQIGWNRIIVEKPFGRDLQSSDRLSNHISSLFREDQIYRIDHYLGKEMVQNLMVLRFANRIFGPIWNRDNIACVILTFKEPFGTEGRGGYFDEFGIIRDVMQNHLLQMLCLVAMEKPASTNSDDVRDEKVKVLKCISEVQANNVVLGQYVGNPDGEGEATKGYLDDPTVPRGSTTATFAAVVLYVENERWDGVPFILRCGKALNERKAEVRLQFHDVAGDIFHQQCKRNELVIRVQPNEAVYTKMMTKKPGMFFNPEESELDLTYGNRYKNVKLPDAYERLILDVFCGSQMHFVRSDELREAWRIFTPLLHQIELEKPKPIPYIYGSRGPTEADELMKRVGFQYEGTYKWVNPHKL
Chain of Cytochrome P450 2C9 (P11712 whole entry): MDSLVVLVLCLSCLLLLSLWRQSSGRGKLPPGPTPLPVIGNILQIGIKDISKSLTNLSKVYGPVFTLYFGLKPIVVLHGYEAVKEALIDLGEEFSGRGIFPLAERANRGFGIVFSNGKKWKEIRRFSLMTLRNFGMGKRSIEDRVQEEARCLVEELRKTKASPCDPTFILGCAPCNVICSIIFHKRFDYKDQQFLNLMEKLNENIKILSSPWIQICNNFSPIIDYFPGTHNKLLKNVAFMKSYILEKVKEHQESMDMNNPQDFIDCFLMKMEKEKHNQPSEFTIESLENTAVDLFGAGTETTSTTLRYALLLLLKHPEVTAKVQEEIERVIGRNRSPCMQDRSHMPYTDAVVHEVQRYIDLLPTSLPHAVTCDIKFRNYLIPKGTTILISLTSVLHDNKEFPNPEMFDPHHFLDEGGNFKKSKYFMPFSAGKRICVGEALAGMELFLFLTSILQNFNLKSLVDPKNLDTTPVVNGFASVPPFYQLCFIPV

O=C(c1ccc2c3c(cccc13)CC2)C1CCCN(CC2CC2)C1 (configuration not stated)
EC50 [1]: 0.841 µM (active)

Cc1ccc(C(=O)N/C(=C/C=C/c2ccccc2)C(=O)NCc2ccco2)cc1
IC50 [2]: 17.4 µM (active)
AC50 (Cytochrome P450 2C9): 10 µM (inconclusive)

COc1cccc(C2(c3cccc(OC)c3)CC2C(=O)Nc2ccc(F)cc2)c1 (configuration not stated)
IC50 [3]: > 80 µM (inactive)

N#Cc1ccc(CN2CCN(C(=O)CNC(=O)Cc3cccc4ccccc34)CC2)cc1
AC50 [4]: 10.3 µM (active)
AC50 [5]: 57.1 µM (active)

O=[N+]([O-])c1ccc(N2CCNCC2)c(Cl)c1
EC50 [1]: 0.596 µM (active)

CCOC(=O)c1cccc(C2=C(CNC(=O)c3cccnc3)[C@H]3CC[C@@H](C2)N3Cc2ccccc2)c1
IC50 (H9c2): 35.3 µM (inactive)

CSc1cccc(NS(=O)(=O)c2ccc3c(c2)CCN3C(C)=O)c1
IC50 (HEK293 [6]): 10.8 µM (active)
EC50 (HEK293 [7]): 2.42 µM (active)
AC50 [8]: 1.49 µM (active)
IC50 (HEK293 [9]): > 20 µM (inactive)
AC50 [10]: 2.79 µM (active)
IC50 (HEK293 [11]): 7.07 µM (active)

Cc1nc(C)c(-c2ccc(SCC(=O)Nc3cccc(Cl)c3)nn2)s1
IC50 (HEK293 [6]): 4.18 µM (active)
EC50 (HEK293 [7]): > 20 µM (inactive)
IC50 (HEK293 [9]): > 20 µM (inactive)
IC50 (HEK293 [11]): 4.58 µM (active)

C=CCc1c(C)nc(S)c(C#N)c1C
IC50 [3]: > 80 µM (inactive)

O=c1[nH]c2ccccc2c2ccccc12
IC50 (H9c2): > 79 µM (inactive)

CC1(C)CC2CC(C)(CN2C(=O)COC(=O)c2nnc(O)c3ccccc23)C1 (configuration not stated)
IC50 (H9c2): 10.7 µM (active)

CN(C)c1ccc(NC(=S)N2CCN(c3ncc(C(F)(F)F)cc3Cl)CC2)cc1
EC50 [1]: 2.66 µM (active)
